Read-outs that look alike come from different tables or passages of the source.
Assays:
[1] = target: T1, hMC3-R (Homo sapiens, UniProt P41968); assay: competitive inhibition binding assay, 125I-NDP-α-MSH, membranes; details: for inhibition at 1 µM: 1 μM compound, average of triplicates, read-out: Inhibition at 1 μM MC3-R
T1 construct: expressed in transfected cells
Experimental: (§1) A competitive inhibition binding assay was conducted using membranes prepared from hMC3-R, hMC4-R, hMC5-R, and B-16 mouse melanoma cells (containing MC1-R) using 0.4 nM ^125I-NDP-α-MSH (New England Nuclear, Boston, Mass., USA) in 50 mM HEPES buffer containing 1 mM MgCl2, 2 mM CaCl2, and 5 mM KCl, at pH 7.2. The assay tube also contained a chosen concentration of the test compound of this invention, for determining its efficacy in inhibiting the binding of ^125I-NDP-α-MSH to its receptor.
(§2) Incubation was for 90 minutes at room temperature, after which the assay mixture was filtered and the membranes washed three times with ice cold buffer. The filter was dried and counted in a gamma counter for remaining radioactivity bound to the membranes. 100% specific binding was defined as the difference in radioactivity (cpm) bound to cell membranes in the absence and presence of 1 μM α-MSH. […] Each assay was conducted in triplicate and the actual mean values are described. The Ki (nM) of certain compounds of the invention were determined.

[2] = target: T2, hMC5-R (Homo sapiens, UniProt P33032); assay: as above; details: for inhibition at 1 µM: 1 μM compound, average of triplicates, read-out: Inhibition at 1 μM MC5-R; for Ki: read-out: Ki (nM) MC5-R
T2 construct: expressed in transfected cells
Experimental: as §1, §2

[3] = target: T3, hMC4-R (Homo sapiens, UniProt P32245); assay: as above; details: for inhibition at 1 µM: 1 μM compound, average of triplicates, read-out: Inhibition at 1 μM MC4-R; for Ki: read-out: Ki (nM) MC4-R
T3 construct: expressed in transfected cells
Experimental: as §1, §2

[4] = ICV feeding studies, change in food intake and body weight; type: in vivo, rat; details: 1 nmol, male Sprague-Dawley rats; for change in weight: 24 hour
Experimental: (§3) Change in food intake and body weight was evaluated for selected compounds. Male Sprague-Dawley rats weighing ˜300 g at the beginning of the experiment were kept on a 12 hour on/off light cycle. Lights out was adjusted to 12:00 p.m. to allow for dosing just prior to the start of their dark period. Rats (8-12/group) were fed powdered chow and water ad libitum. For 1 week before treatment, 24-hour food intake and body weight change was recorded to assess a baseline for the group during vehicle treatment. The rats were dosed ICV with vehicle or selected compounds (1-3 nmol). The changes in body weight and food intake for the 24 hour period after dosing were determined. The changes in body weight and food intake for the 48 hour period, and in same cases for 72 hours as well, after dosing were also measured to determined reversal of changes in body weight and food intake effect back to baseline.

[5] = penile erection (PE) studies in male rats; type: in vivo, rat; details: IV
Experimental: The ability of compounds to induce penile erection (PE) in male rats was evaluated with selected compounds. Male Sprague-Dawley rats weighing 200-250 g were kept on a 12 hour on/off light cycle with food and water ad libitum. All behavioral studies were performed between 10 a.m. and 5 p.m. Groups of 4-8 rats were treated with compounds at a variety of doses via intravenous (IV) or intracerebroventricular (ICV) routes. Immediately after treatment, rats were placed into individual polystyrene cages (27 cm long, 16 cm wide, and 25 cm high) for behavioral observation. The iv and icv treated rats were observed respectively for 30 minutes and 120 min and the number of yawns, grooming bouts and PEs were recorded in 10-minute bins.

[6] = target: T4, MC1-R (B-16 mouse melanoma cells) (Mus musculus, UniProt Q01727); assay: competitive inhibition binding assay, 125I-NDP-α-MSH, membranes; details: for inhibition at 1 µM: 1 μM compound, average of triplicates, results less than 0% reported as 0%
T4 construct: B-16 mouse melanoma cells (containing MC1-R); endogenous in cells; host or cells: B-16 mouse melanoma cells
Experimental: as §1, §2

[7] = target: T4, MC1-R (B-16 mouse melanoma cells); assay: cAMP assay for agonist/antagonist status; type: cell-based; details: antagonism = inhibition of α-MSH-induced cAMP
Experimental: (§4) Functional evaluation of compounds at melanocortin receptors was performed by measuring the accumulation of intracellular cAMP in HEK-293 cells expressing MC3-R, MC4-R or MC5-R, and in B-16 mouse melanoma cells (containing MC1-R). Cells, suspended in Earle's Balanced Salt Solution containing 10 mM HEPES, pH 7.5, 5 mM MgCl2, 1 mM glutamine, 0.1% albumin and 0.6 mM 3-isobutyl-1-methyl-xanthine, a phosphodiesterase inhibitor, were plated in 96 well plates at a density of 0.5×10^5 cells per well. Cells were incubated with the test compounds in the presence or absence of α-MSH for 1 hour at 37° C. cAMP levels were measured by EIA (Amersham) in the cell lysates. Data analysis and EC50 values were determined using nonlinear regression analysis with Prism Graph-Pad software.
(§5) The agonist/antagonist status with respect to MC4-R of certain compounds of the invention was determined. Antagonistic activity was determined by measuring the inhibition of α-MSH-induced cAMP levels following exposure to the compounds as in Example 2.

[8] = target: T5, MC4-R (HEK-293 cells expressing MC4-R) (Homo sapiens, UniProt P32245); assay: cAMP assay for agonist/antagonist status; type: cell-based; details: antagonism = inhibition of α-MSH-induced cAMP
T5 construct: expressed in transfected cells; host or cells: HEK-293
Experimental: as §4, §5

[9] = target: T6, MC5-R (HEK-293 cells expressing MC5-R) (Homo sapiens, UniProt P33032); assay: cAMP assay for agonist/antagonist status; type: cell-based; details: antagonism = inhibition of α-MSH-induced cAMP
T6 construct: expressed in transfected cells; host or cells: HEK-293
Experimental: as §4, §5

[10] = IV feeding studies, change in food intake and body weight; type: in vivo, rat; details: 3 μg/Kg, male Sprague-Dawley rats
Experimental: as §3, with “The rats were dosed ICV with vehicle or selected compounds (1-3 nmol).” left out

[11] = 1 μg/Kg, 30 minutes observation, stated below baseline

T4 sequence (Q01727 whole entry): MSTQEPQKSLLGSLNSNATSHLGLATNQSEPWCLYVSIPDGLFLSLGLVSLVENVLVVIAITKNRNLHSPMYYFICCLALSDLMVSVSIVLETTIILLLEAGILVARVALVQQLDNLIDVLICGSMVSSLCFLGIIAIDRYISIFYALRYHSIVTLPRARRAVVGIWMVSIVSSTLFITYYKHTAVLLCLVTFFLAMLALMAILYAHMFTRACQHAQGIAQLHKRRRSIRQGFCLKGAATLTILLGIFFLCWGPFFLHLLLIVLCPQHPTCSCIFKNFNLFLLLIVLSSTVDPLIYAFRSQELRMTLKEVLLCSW
T1 sequence (P41968 whole entry): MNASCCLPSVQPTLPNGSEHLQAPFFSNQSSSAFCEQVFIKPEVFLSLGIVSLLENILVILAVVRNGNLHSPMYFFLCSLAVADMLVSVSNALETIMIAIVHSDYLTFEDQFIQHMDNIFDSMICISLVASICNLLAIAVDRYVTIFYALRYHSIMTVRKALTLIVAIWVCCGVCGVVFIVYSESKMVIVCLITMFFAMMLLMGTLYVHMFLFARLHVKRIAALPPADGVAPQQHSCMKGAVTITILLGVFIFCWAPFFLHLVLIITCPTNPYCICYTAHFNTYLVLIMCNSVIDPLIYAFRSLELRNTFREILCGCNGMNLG
T5 sequence (P32245 whole entry): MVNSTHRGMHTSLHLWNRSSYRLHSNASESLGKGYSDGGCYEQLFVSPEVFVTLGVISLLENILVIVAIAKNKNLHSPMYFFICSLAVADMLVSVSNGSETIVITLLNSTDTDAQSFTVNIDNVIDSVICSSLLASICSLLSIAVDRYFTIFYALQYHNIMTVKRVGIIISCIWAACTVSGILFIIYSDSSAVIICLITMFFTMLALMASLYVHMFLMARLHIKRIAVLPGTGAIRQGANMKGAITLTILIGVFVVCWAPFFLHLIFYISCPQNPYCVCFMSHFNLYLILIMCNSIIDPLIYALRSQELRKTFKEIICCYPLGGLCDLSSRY
T3 sequence (P32245 whole entry): as above
T6 sequence (P33032 whole entry): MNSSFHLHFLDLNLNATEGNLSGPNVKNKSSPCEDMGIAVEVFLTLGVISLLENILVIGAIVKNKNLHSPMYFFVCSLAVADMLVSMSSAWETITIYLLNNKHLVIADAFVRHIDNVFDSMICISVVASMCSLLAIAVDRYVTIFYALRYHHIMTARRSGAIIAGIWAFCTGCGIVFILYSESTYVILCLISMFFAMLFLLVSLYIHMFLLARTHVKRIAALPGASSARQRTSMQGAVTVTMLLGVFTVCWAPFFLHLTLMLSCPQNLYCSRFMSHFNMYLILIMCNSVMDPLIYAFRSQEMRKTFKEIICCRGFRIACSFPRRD
T2 sequence (P33032 whole entry): as above

Compound | inhibition at 1 µM [1] [%] | inhibition at 1 µM [2] [%] | inhibition at 1 µM [3] [%] | 24 hour change in food intake [4] [g] | change in weight [4] | mean PE [5, 11] | Ki ([1]; bound printed in μM in a Ki (nM) table, read-out: Ki MC3-R) [µM] | Ki [2] [nM] | inhibition at 1 µM [6] [%] | Ki ([6]; bound printed in μM in a Ki (nM) table, read-out: Ki MC1-R) [µM] | Ki [3] [nM] | agonist/antagonist status as to MC1-R [7] | agonist/antagonist status as to MC4-R [8] | agonist/antagonist status as to MC5-R [9] | mean PE ([5]; 50 μg/Kg, stated not statistically relevant) | Ki ([1]; read-out: Ki (nM) MC3-R) [µM] | Ki ([6]; read-out: Ki (nM) MC1-R) [µM] | 24 hour change in food intake [10] [g] | change in weight ([10]; 24 hour) [g]
NCCCC[C@H]1C(=O)N(CCc2ccc3ccccc3c2)CCN1C(=O)[C@@H](Cc1ccc(Cl)cc1Cl)NC(=O)[C@@H]1CC[C@H](c2ccccc2)N1 [Example 7] | 18 | 51 | 92 | -7.77 | -5.88 g |  |  |  |  |  |  |  |  |  |  |  |  |  | 
NCCCC[C@H]1C(=O)N(CCc2ccc3ccccc3c2)CCN1C(=O)[C@@H](Cc1ccc(Cl)cc1Cl)NC(=O)/C=C/c1ccccc1 [Example 8] | 46 | 60 | 96 | -10.1 | -9.91 g | 0.13 | > 1 | 410 | 30 | > 1 | 13 | antagonist | antagonist | agonist |  |  |  |  | 
NCCCC[C@H]1C(=O)N(CCc2ccc3ccccc3c2)CCN1C(=O)[C@@H](Cc1ccc(Cl)cc1Cl)NC(=O)c1ccc(Oc2ccccc2)cc1 [Example 10] | 51 | 51 | 99 | -0.6 | -1.73 g | 0.14 |  | 282 |  |  | 1 | antagonist | antagonist | agonist | 0.25 | 0.15 | 0.915 |  | 
C[C@@H]1CN(C(=O)[C@H](N)Cc2ccc(Cl)cc2Cl)[C@@H](CCCNC(=N)N)CN1CCc1ccc2ccccc2c1 [Example 11, N-{3-[1-[2(R)-Amino-3-(2,4-dichloro-phenyl)-propionyl]-5(R)-methyl-4-(2 naphthalen-2-yl-ethyl)-piperazin-2(S)-yl]-propyl}-guanidine] | 82 | 78 | 100 | -2.6 | -0.3 g |  |  | 362 | 44 |  | 2 |  | antagonist |  |  | 0.095 | 1.13 |  | 
Cc1ccc(C[C@@H](N)C(=O)N2C[C@@H](C)N(CCc3ccc4ccccc4c3)C[C@@H]2CCCNC(=N)N)c(Cl)c1 [Example 13, N-{3-[1-[2(R)-Amino-3-(2-chloro-4-methyl-phenyl)-propionyl]-5(R)-methyl-4-(2-naphthalen-2-yl-ethyl)-piperazin-2(S)-yl]-propyl}-guanidine] | 73 | 72 | 100 | -1.6 | -3.9 g |  |  | 527 | 37 |  | 5 |  | antagonist |  |  | 0.227 | 0.907 |  | 
Cc1cc(Cl)ccc1C[C@@H](N)C(=O)N1C[C@@H](C)N(CCc2ccc3ccccc3c2)C[C@@H]1CCCNC(=N)N [Example 14, N-{3-[1-[2(R)-Amino-3-(4-chloro-2-methyl-phenyl)-propionyl]-5(R)-methyl-4-(2-naphthalen-2-yl-ethyl)-piperazin-2(S)-yl]-propyl}-guanidine] | 83 | 82 | 100 | -5.5 | no change |  |  | 219 | 23 |  | 1 |  | partial agonist |  |  | 0.099 | 1.05 |  | 
Cc1ccc(C[C@@H](N)C(=O)N2C[C@@H](C)N(CCc3ccc4ccccc4c3)C[C@@H]2CCCNC(=N)N)c(C)c1 [Example 16, N-{3-[1-[2(R)-Amino-3-(2,4-dimethyl-phenyl)-propionyl]-5(R)-methyl-4-(2-naphthalen-2-yl-ethyl)-piperazin-2(S)-yl]-propyl}-guanidine] | 67 | 73 | 98 | -2.6 | -5 g |  |  | 717 | 22 |  | 11 |  | agonist |  |  | 0.157 | 1.22 | -7.3 | -6.3
C[C@@H]1CN(CCc2ccc3ccccc3c2)C[C@H](CCCNC(=N)N)N1C(=O)[C@H](N)Cc1ccc(Cl)cc1Cl [Example 17 (R)-CH3, N-{3-[1-[2(R)-Amino-3-(2,4-dichloro-phenyl)-propionyl]-6(R)-methyl-4-(2-naphthalen-2-yl-ethyl)-piperazin-2(S)-yl]-propyl}-guanidine] | 32 | 36 | 95 |  |  |  |  |  | 14 |  |  |  |  |  |  |  |  |  | 
C[C@H]1CN(CCc2ccc3ccccc3c2)C[C@H](CCCNC(=N)N)N1C(=O)[C@H](N)Cc1ccc(Cl)cc1Cl [Example 17 (S)-CH3, N-{3-[1-[2(R)-Amino-3-(2,4-dichloro-phenyl)-propionyl]-6(S)-methyl-4-(2-naphthalen-2-yl-ethyl)-piperazin-2(S)-yl]-propyl}-guanidine] | 47 | 64 | 97 |  |  |  |  | 602 | 3 |  | 21 | agonist | agonist | inactive |  | 0.551 | 3.18 |  | 
N=C(N)NCCC[C@H]1CN(CCOc2ccc3ccccc3c2)CCN1C(=O)[C@@H](N)Cc1ccc(Cl)cc1Cl [Example 18] | 33 | 40 | 91 |  |  |  |  |  | 25 |  |  |  |  |  |  |  |  |  | 

Source: US7732451B2, “Naphthalene-containing melanocortin receptor-specific small molecule” (Palatin Technologies, Inc., priority 2002, dated 2010)
